The text below walks through data of patent US20150148311A1, “NON-SYSTEMIC TGR5 AGONISTS” (Ardelyx, Inc., priority 2011, published 2015).

In one test the target is T1, human TGR5 (Homo sapiens, UniProt Q8TDU6).
T1 construct: expressed in transfected cells
T1 sequence (Q8TDU6 1-330): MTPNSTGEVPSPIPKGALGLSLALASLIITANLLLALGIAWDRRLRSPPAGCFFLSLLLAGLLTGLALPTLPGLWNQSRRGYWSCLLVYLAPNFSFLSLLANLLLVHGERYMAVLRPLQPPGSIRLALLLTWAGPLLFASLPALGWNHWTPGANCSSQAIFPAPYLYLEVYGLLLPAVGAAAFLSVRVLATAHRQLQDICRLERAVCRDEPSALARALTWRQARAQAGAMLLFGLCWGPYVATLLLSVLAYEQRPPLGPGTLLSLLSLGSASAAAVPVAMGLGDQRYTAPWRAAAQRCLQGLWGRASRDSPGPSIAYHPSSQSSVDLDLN
The test is described as follows: Cell-based TGR5 assay, HEK293 cells stably expressing human TGR5, cAMP by HTRF. To be noted: HEK293 cells stably expressing human TGR5, 30 min at 37 C, 0.05 nM to 10 μM, read-out: pEC50 Human TGR5 (converted). The method, then:
Two primary cell based screens were performed. The first utilized HEK293 cells stably transfected to heterologously express human TGR5. The second screen used the human caecum carcinoma cell line NCI-H716 which endogenously expresses human TGR5. In both assays, cells are treated with candidate TGR5 activators and assessed for the increased intercellular levels of cAMP.
HEK293 cells were transfected with a vector that expresses a gene encoding human TGR5, and a stable cell line was isolated using drug selection following standard techniques. Cells were grown overnight at 37° C./5% CO2 prior to assay.
(§1) TGR5-mediated cAMP generation was measured using a homogeneous time resolved fluorescence (HTRF) detection method (Cisbio). Test compounds were dissolved in DMSO to a final concentration of 10 mM. Serial 3-fold dilutions of the stock solution were made in DMSO, and these solutions were diluted 100-fold into Hanks Balanced Salt Solution supplemented with 10 mM HEPES pH 7.4 and 0.5 mM isobutyl methylxanthine (IBMX). Prior to assay, culture medium was replaced with fresh medium, and test compounds diluted in HBSS/HEPES/IBMX were added to the cells and incubated at 37° C. for 30 minutes.
(§2) Following incubation with test compounds, cAMP was detected through the successive addition of cAMP labeled with the modified allophyocyanin dye d2 (cAMP-d2) and cryptate-labeled anti-cAMP in lysis buffer, and reading HTRF per the manufacturer's instructions. A standard curve was used to convert the raw HTRF data into [cAMP].
On the technique in general: TR-FRET usually uses a lanthanide donor and a delayed reading to cut background.

Test [1] has as its target T2, endogenously expressed TGR5 in NCI H716 (Homo sapiens, UniProt Q8TDU6).
T2 construct: human caecum carcinoma cell line NCI-H716 which endogenously expresses human TGR5; endogenous in cells; host or cells: NCI-H716
T2 sequence (Q8TDU6 1-330): T1 sequence (Q8TDU6 1-330)
The test is described as follows: Cell-based TGR5 assay, NCI-H716 cells endogenously expressing human TGR5, cAMP by HTRF. To be noted: 30 min at 37 C, 22 nM to 50 μM, read-out: pEC50 endogenously expressed TGR5 in NCI H716 (converted). As to the method: Two primary cell based screens were performed. The first utilized HEK293 cells stably transfected to heterologously express human TGR5. The second screen used the human caecum carcinoma cell line NCI-H716 which endogenously expresses human TGR5. In both assays, cells are treated with candidate TGR5 activators and assessed for the increased intercellular levels of cAMP. […]
as §1, §2

As for `CC(c1cc(Cl)ccc1Cl)N1CCC[C@H]1C(=O)N1CCN(C2CC2)c2ccccc21` (single isomer, unassigned) [Example 67], the EC50 (at human TGR5; in test [1]) was 1260 to 50100 nM in each case. Consider `CC(NCc1cc(Cl)ccc1Cl)C(=O)N1CCN(C2CC2)c2ccccc21` (centres unmarked) [Example 7, 1-(4-cyclopropyl-3,4-dihydroquinoxalin-1(2H)-yl)-2-(2,5-dichlorobenzylamino)propan-1-one], for which the EC50 was 126 to 1000 nM on human TGR5 and 1260 to 50100 nM in test [1].

As for `O=C(O)CCc1cc(Cl)c(OCC2(C(=O)N3CCN(C4CC4)c4ccccc43)CC2)cc1Cl` [Example 33, 3-[2,5-dichloro-4-([1-[(4-cyclopropyl-1,2,3,4-tetrahydroquinoxalin-1-yl)carbonyl]cyclopropyl]methoxy)phenyl]propanoic acid], the EC50 (at human TGR5; in test [1]) was 1260 to 50100 nM throughout.

In the case of `COc1ccccc1N(C)C(=O)C1(NCc2cc(Cl)ccc2Cl)CC1` [Example 38, 1-(2,5-dichlorobenzylamino)-N-(2-methoxyphenyl)-N-methylcyclopropanecarboxamide], the EC50 (on human TGR5; in test [1]) was < 100 nM throughout. In the case of `O=C(N1CCN(C2CC2)c2ccccc21)C1(OCc2cc(Cl)ccc2Cl)CCC1` [Example 41, 1-cyclopropyl-4-([1-[(2,5-dichlorophenyl)methoxy]cyclobutyl]carbonyl)-1,2,3,4-tetrahydroquinoxaline], the EC50 on human TGR5 is < 100 nM; in test [1], 126 to 1000 nM. For `O=C(N1CCN(C2CC2)c2ccccc21)C1(OCc2cc(Cl)ccc2C(F)(F)F)CC1` [Example 42, (1-(5-chloro-2-(trifluoromethyl)benzyloxy)cyclopropyl)(4-cyclopropyl-3,4-dihydroquinoxalin-1(2H)-yl)methanone], the EC50 (at human TGR5; in test [1]) was 126 to 1000 nM throughout. Consider `O=C(N1CCN(C2CC2)c2ccccc21)C1(OCc2cc(C(F)(F)F)ccc2Cl)CC1` [Example 43, 1-[(1-[[2-chloro-5-(trifluoromethyl)phenyl]methoxy]cyclopropyl)carbonyl]-4-cyclopropyl-1,2,3,4-tetrahydroquinoxaline], for which the EC50 (at human TGR5; in test [1]) was < 100 nM in each case.

Consider `N#Cc1cccc(COC2(C(=O)N3CCN(C4CC4)c4ccccc43)CC2)c1` [Example 45, 3-((1-(4-cyclopropyl-1,2,3,4-tetrahydroquinoxaline-1-carbonyl)cyclopropoxy)methyl)benzonitrile], for which the EC50 was 126 to 1000 nM on human TGR5 and 1260 to 50100 nM in test [1]. As to `Cn1nc(C(=O)O)cc1OCc1cc(Cl)c(CN2CSC[C@H]2C(=O)N2CCN(C3CC3)c3ccccc32)cc1Cl` [Example 233], the EC50 at human TGR5 was 126 to 1000 nM. `O=C(NC[C@H](O)[C@@H](O)[C@H](O)[C@H](O)CO)c1cnn(Cc2cc(Cl)c(CN3CSC[C@H]3C(=O)N3CCN(C4CC4)c4ccccc43)cc2Cl)c1` [Example 234]: the EC50 on human TGR5 was < 100 nM.

Take `CN(C[C@H](O)[C@@H](O)[C@H](O)[C@H](O)CO)C(=O)c1cnn(Cc2cc(Cl)c(CN3CSC[C@H]3C(=O)N3CCN(C4CC4)c4ccccc43)cc2Cl)c1` [Example 235]: the EC50 on human TGR5 is 126 to 1000 nM.

As to `O=C(NCCCc1cc(Cl)c(OCC2(C(=O)N3CCN(C4CC4)c4ccccc43)CC2)cc1Cl)NC[C@H](O)[C@@H](O)[C@H](O)[C@H](O)CO` [Example 250], on human TGR5, the EC50 was 126 to 1000 nM. Turning to `O=C(NCCCCc1cc(Cl)c(OCC2(C(=O)N3CCN(C4CC4)c4ccccc43)CC2)cc1Cl)NC[C@H](O)[C@@H](O)[C@H](O)[C@H](O)CO` [Example 251], at human TGR5, the EC50 is 126 to 1000 nM.

As to `CN(C[C@H](O)[C@@H](O)[C@H](O)[C@H](O)CO)C(=O)NCCCc1cc(Cl)c(OCC2(C(=O)N3CCN(C4CC4)c4ccccc43)CC2)cc1Cl` [Example 253], the EC50 at human TGR5 was 126 to 1000 nM.

In the case of `CN(C[C@H](O)[C@@H](O)[C@H](O)[C@H](O)CO)C(=O)CCCCc1ccc(Cl)c(CNC2(C(=O)N3CCN(C4CC4)c4ccccc43)CC2)c1` [Example 260], the EC50 at human TGR5 was 126 to 1000 nM. For the compound `O=C(CCCCc1ccc(Cl)c(CNC2(C(=O)N3CCN(C4CC4)c4ccccc43)CC2)c1)NC[C@H](O)[C@@H](O)[C@H](O)[C@H](O)CO` [Example 261], the EC50 on human TGR5 was 126 to 1000 nM.

As for `CN(C[C@H](O)[C@@H](O)[C@H](O)[C@H](O)CO)C(=O)CCCCc1ccc(Cl)c(CNC2(C(=O)N3CCN(C4CC4)c4ccccc43)CC2)c1` [Example 262], the EC50 on human TGR5 was 1260 to 50100 nM. Still for that read-out and setting: the figure for `O=C(CCCCc1ccc(Cl)c(CNC2(C(=O)N3CCN(C4CC4)c4ccccc43)CC2)c1)NC[C@H](O)[C@@H](O)[C@H](O)[C@H](O)CO` [Example 263] is 1260 to 50100 nM; for `O=C([C@H]1C[C@H](F)CN1Cc1cc(Cl)ccc1C(F)(F)F)N1CCN(C2CC2)c2ccccc21` [Example 264] it is 126 to 1000 nM. For the compound `CN(C[C@H](O)[C@@H](O)[C@H](O)[C@H](O)CO)C(=O)CCc1cc(Cl)c(CN2C[C@@H](F)C[C@H]2C(=O)N2CCN(C3CC3)c3ccccc32)cc1Cl` [Example 266], the EC50 on human TGR5 was 1260 to 50100 nM. As for `CN(C[C@H](O)[C@@H](O)[C@@H](O)[C@H](O)CO)C(=O)CCc1cc(Cl)c(CN2C[C@@H](F)C[C@H]2C(=O)N2CCN(C3CC3)c3ccccc32)cc1Cl` [Example 267], the EC50 at human TGR5 was 1260 to 50100 nM. Consider `CN(C[C@H](O)[C@@H](O)[C@H](O)[C@H](O)CO)C(=O)CCCCc1ccc(C(F)(F)F)c(CN2CSC[C@H]2C(=O)N2CCN(C3CC3)c3ccccc32)c1` [Example 269], for which the EC50 at human TGR5 was 1260 to 50100 nM. For the compound `O=C([C@@H]1CSCN1Cc1cc(I)ccc1C(F)(F)F)N1CCN(C2CC2)c2ccccc21` [Example 270], on human TGR5, the EC50 is 126 to 1000 nM. On to `O=C(CCCCc1ccc(C(F)(F)F)c(CN2CSC[C@H]2C(=O)N2CCN(C3CC3)c3ccccc32)c1)NC[C@H](O)[C@@H](O)[C@H](O)[C@H](O)CO` [Example 271], for which the EC50 at human TGR5 was 1260 to 50100 nM. As for `O=C(CCCCc1ccc(C(F)(F)F)c(CNC2(C(=O)N3CCN(C4CC4)c4ccccc43)CC2)c1)NC[C@H](O)[C@@H](O)[C@H](O)[C@H](O)CO` [Example 272], the EC50 at human TGR5 was 1260 to 50100 nM. As for `NCCCC[C@@H]1NC(=O)N(CCCCCc2cc(Cl)c(CN3CSC[C@H]3C(=O)N3CCN(C4CC4)c4ccccc43)cc2Cl)C1=O` [Example 273], at human TGR5, the EC50 is 126 to 1000 nM. `COC(=O)[C@H](CCCCN)NC(=O)NCCCCCc1cc(Cl)c(CN2CSC[C@H]2C(=O)N2CCN(C3CC3)c3ccccc32)cc1Cl` [Example 274]: the EC50 on human TGR5 was 126 to 1000 nM.

As for `COC(=O)[C@@H](CCCCN)NC(=O)NCCCCCc1cc(Cl)c(CN2CSC[C@H]2C(=O)N2CCN(C3CC3)c3ccccc32)cc1Cl` [Example 275], at human TGR5, the EC50 was 126 to 1000 nM. For the compound `CN(C[C@H](O)[C@@H](O)[C@H](O)[C@H](O)CO)C(=O)CN(CCCCCc1cc(Cl)c(CN2CSC[C@H]2C(=O)N2CCN(C3CC3)c3ccccc32)cc1Cl)CC(=O)O` [Example 277], the EC50 on human TGR5 is 126 to 1000 nM. `CN(C[C@H](O)C(O)[C@H](O)[C@H](O)CO)C(=O)CC[C@H](NC(=O)CCCCc1cc(Cl)c(CN2CSC[C@H]2C(=O)N2CCN(C3CC3)c3ccccc32)cc1Cl)C(=O)N(C)C[C@H](O)[C@@H](O)[C@H](O)[C@H](O)CO` (some centres unmarked) [Example 280]: on human TGR5, the EC50 was 126 to 1000 nM. In the case of `O=C(O)CN1CCN(C(=O)NCCCCCc2cc(Cl)c(CN3CSC[C@H]3C(=O)N3CCN(C4CC4)c4ccccc43)cc2Cl)CC1` [Example 281], the EC50 on human TGR5 is < 100 nM. With `O=C([C@@H]1CSCN1Cc1cc(Cl)c(CN2CSC[C@H]2C(=O)N2CCN(C3CC3)c3ccccc32)cc1Cl)N1CCN(C2CC2)c2ccccc21` [Example 284], at human TGR5, the EC50 was 1260 to 50100 nM.

Consider `O=C(NC[C@H](O)[C@@H](O)[C@H](O)[C@H](O)CO)c1ccc(OCCCc2cc(Cl)c(CN3CSC[C@H]3C(=O)N3CCN(C4CC4)c4ccccc43)cc2Cl)cc1` [Example 286], for which the EC50 on human TGR5 was 126 to 1000 nM. The same measure, in the same setting: the figure for `CN(C(=O)[C@@H]1CSCN1Cc1cc(Cl)ccc1Cl)c1ccccc1OC1CC1` [Example 289] is 126 to 1000 nM; for `CN(C(=O)[C@@H]1CSCN1Cc1cc(Cl)ccc1Cl)c1ccccc1OC1CCC1` [Example 290] it is 126 to 1000 nM; for `O=C(C1SCCN1Cc1cc(Cl)ccc1Cl)N1CCN(C2CC2)c2ccccc21` (centres unmarked) [Example 291] it is 1260 to 50100 nM.
